Patent US10189841B2, “Purinones as ubiquitin-specific protease 1 inhibitors” (Forma Therapeutics, Inc., priority 2015, dated 2019)

What follows are compounds tested against USP1 (construct USP1 (I-785, GG670, 671AA)/UAF1 (I-677)-Flag) (Homo sapiens (Human), UniProt O94782, G670A/G671A) (assay: Ubiquitin-Rhodamine 110 assay for USP1 activity). Details: USP1/UAF1 25 pM, Ub-Rh110 25 nM, 30 min preincubation.
USP1 (construct USP1 (I-785, GG670, 671AA)/UAF1 (I-677)-Flag), sequence (O94782 whole entry G670A/G671A): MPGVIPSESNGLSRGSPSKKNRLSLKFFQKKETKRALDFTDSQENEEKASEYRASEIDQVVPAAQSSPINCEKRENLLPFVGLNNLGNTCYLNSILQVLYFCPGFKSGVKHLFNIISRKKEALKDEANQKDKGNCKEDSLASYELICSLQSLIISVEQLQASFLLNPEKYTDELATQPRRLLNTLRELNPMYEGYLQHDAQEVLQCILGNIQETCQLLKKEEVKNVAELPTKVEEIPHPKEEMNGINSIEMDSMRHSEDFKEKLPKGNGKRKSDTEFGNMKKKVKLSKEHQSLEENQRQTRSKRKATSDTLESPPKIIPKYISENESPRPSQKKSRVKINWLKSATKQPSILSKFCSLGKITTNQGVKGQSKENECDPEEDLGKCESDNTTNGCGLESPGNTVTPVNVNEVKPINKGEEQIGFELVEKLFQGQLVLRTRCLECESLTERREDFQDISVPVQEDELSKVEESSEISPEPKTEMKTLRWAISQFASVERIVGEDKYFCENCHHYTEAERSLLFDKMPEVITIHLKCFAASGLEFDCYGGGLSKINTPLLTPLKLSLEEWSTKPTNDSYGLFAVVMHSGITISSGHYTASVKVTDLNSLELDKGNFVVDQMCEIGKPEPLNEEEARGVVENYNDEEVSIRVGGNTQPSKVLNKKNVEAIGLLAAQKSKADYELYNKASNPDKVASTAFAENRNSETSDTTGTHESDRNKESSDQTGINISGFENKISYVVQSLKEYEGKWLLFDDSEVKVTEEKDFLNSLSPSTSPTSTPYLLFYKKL
USP1 (construct USP1 (I-785, GG670, 671AA)/UAF1 (I-677)-Flag), sequence (Q8TAF3 whole entry partner): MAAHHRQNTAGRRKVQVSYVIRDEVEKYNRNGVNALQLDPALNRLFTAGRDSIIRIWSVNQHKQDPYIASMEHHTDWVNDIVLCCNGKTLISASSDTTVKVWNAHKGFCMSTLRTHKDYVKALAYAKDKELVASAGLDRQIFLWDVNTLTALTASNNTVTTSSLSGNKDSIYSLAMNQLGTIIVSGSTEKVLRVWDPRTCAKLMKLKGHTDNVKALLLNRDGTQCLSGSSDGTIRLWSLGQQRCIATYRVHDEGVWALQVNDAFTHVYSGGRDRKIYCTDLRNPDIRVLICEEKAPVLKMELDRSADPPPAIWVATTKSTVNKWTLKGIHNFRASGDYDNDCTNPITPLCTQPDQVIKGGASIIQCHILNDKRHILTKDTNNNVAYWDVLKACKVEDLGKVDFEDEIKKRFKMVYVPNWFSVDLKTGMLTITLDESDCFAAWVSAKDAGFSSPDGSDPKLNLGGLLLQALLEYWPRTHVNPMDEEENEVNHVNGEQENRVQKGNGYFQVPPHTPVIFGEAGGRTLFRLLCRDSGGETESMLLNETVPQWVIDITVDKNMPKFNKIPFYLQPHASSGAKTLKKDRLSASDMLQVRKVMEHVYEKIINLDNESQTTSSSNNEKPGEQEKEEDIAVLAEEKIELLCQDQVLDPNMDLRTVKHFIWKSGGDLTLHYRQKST
Format: biochemical
In short: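 Two formats with the USP1/UAF1 complex and 25 nM ubiquitin-rhodamine 110 in pH 8.0 Tris buffer with calcium, glutathione and detergent. Single-point screening used 10 µM, 100 pM enzyme and 45 min. Inhibition was set against no-enzyme and DMSO wells.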
Cn1cc(C(F)(F)F)nc1-c1ccc(Cn2c(=O)[nH]c3cnc(-c4ccccc4C4(O)CC4)nc32)cc1 [Compound I-526, 2-(2-(1-Hydroxycyclopropyl)phenyl)-9-(4-(1-methyl-4-(trifluoromethyl)-1H-imidazol-2-yl)benzyl)-7,9-dihydro-8H-purin-8-one] showed an IC50 of less than 0.05 µM. Compound CC(C)c1ncccc1-c1ncc2[nH]c(=O)n([C@@H](C)c3ccc(-c4nc(C(F)(F)F)cn4C)cc3)c2n1 [Compound I-80, (S)-2-(2-isopropylpyridin-3-yl)-9-(1-(4-(1-methyl-4-(trifluoromethyl)-1H-imidazol-2-yl)phenyl)ethyl)-7,9-dihydro-8H-purin-8-one] has an IC50 of less than 0.05 µM. For Cc1cc(N2CCC2)nn1-c1ccc(Cn2c(=O)n(C)c3cnc(-c4cccnc4C(C)C)nc32)cc1 [Compound I-109, 9-(4-(3-(azetidin-1-yl)-5-methyl-1H-pyrazol-1-yl)benzyl)-2-(2-isopropylpyridin-3-yl)-7-methyl-7,9-dihydro-8H-purin-8-one], the IC50 was 0.05 to 0.2 µM. With CCNc1ncccc1-c1ncc2[nH]c(=O)n(Cc3ccc(-c4nc(C(F)(F)F)cn4C)cc3)c2n1 [Compound I-312, 2-(2-(ethylamino)pyridin-3-yl)-9-(4-(1-methyl-4-(trifluoromethyl)-1H-imidazol-2-yl)benzyl)-7,9-dihydro-8H-purin-8-one] the IC50 was less than 0.05 µM. In the case of CC(C)c1ccccc1-c1ncc2c(n1)n(Cc1ccc(OCC3CC3)cc1)c(=O)n2C [Compound I-228, 9-(4-(cyclopropylmethoxy)benzyl)-2-(2-isopropylphenyl)-7-methyl-7,9-dihydro-8H-purin-8-one], the IC50 is reported as 0.05 to 0.2 µM. CC(C)c1ccccc1-c1ncc2c(n1)n(Cc1ccc(-c3nccn3C(F)F)cc1)c(=O)n2C [Compound I-500, 9-(4-(1-(difluoromethyl)-1H-imidazol-2-yl)benzyl)-2-(2-isopropylphenyl)-7-methyl-7,9-dihydro-8H-purin-8-one] was tested, and the IC50 was less than 0.05 µM. In the case of CN1CCC(c2ccn(-c3ccc(Cn4c(=O)[nH]c5cnc(-c6cccnc6OCC(F)(F)F)nc54)cc3)n2)CC1 [Compound I-443, 9-(4-(3-(1-methylpiperidin-4-yl)-1H-pyrazol-1-yl)benzyl)-2-(2-(2,2,2-trifluoroethoxy)pyridin-3-yl)-7,9-dihydro-8H-purin-8-one], the IC50 is reported as 0.2 to 2 µM. In the case of CC(C)NC(=O)Nc1ccc(Cn2c(=O)n(C)c3cnc(-c4ccccc4C(C)C)nc32)cc1 [Compound I-481, 1-isopropyl-3-(4-((2-(2-isopropylphenyl)-7-methyl-8-oxo-7,8-dihydro-9H-purin-9-yl)methyl)phenyl)urea], the IC50 is reported as 0.05 to 0.2 µM. Work on CC(C)c1ccccc1-c1ncc2[nH]c(=O)n([C@H](C)c3ccc(-n4cccn4)cc3)c2n1 (single isomer, unassigned) [Compound I-158] yielded an IC50 of less than 0.05 µM. Work on CC(C)c1ccccc1-c1ncc2[nH]c(=O)n(Cc3ccc(C(=O)NCCN(C)C)cc3)c2n1 [Compound I-408, N-(2-(dimethylamino)ethyl)-4-((2-(2-isopropylphenyl)-8-oxo-7,8-dihydro-9H-purin-9-yl)methyl)benzamide] yielded an IC50 greater than 2 µM. For CC(C)CNC(=O)c1ccc(Cn2c(=O)[nH]c3cnc(-c4ccccc4C(C)C)nc32)cc1 [Compound I-357, N-isobutyl-4-((2-(2-isopropylphenyl)-8-oxo-7,8-dihydro-9H-purin-9-yl)methyl)benzamide], the IC50 was 0.05 to 0.2 µM. CC(C)NC(=O)N1CCC(Cn2c(=O)n(C)c3cnc(-c4ccccc4C(C)C)nc32)CC1 [Compound I-478, N-isopropyl-4-((2-(2-isopropylphenyl)-7-methyl-8-oxo-7,8-dihydro-9H-purin-9-yl)methyl)piperidine-1-carboxamide] gave an IC50 greater than 2 µM. Compound Cc1cc(CO)n(-c2ccc(Cn3c(=O)[nH]c4cnc(-c5ccccc5C5CC5)nc43)cc2)n1 [Compound I-542, 2-(2-Cyclopropylphenyl)-9-(4-(5-(hydroxymethyl)-3-methyl-1H-pyrazol-1-yl)benzyl)-7,9-dihydro-8H-purin-8-one] has an IC50 of less than 0.05 µM. CC(C)c1ccccc1-c1ncc2[nH]c(=O)n(Cc3ccc(N4CCCC4=O)cc3)c2n1 [Compound I-512, 2-(2-Isopropylphenyl)-9-(4-(2-oxopyrrolidin-1-yl)benzyl)-7,9-dihydro-8H-purin-8-one] gave an IC50 of 0.05 to 0.2 µM. With CC(C)c1ccccc1-c1ncc2[nH]c(=O)n(Cc3ccc(C(=O)N(C)Cc4ccc(F)cc4)cc3)c2n1 [Compound I-365, N-(4-fluorobenzyl)-4-((2-(2-isopropylphenyl)-8-oxo-7,8-dihydro-9H-purin-9-yl)methyl)-N-methylbenzamide] the IC50 was 0.05 to 0.2 µM. With CC(C)c1ncccc1-c1ncc2[nH]c(=O)n(Cc3ccc(-n4nccn4)cc3)c2n1 [Compound I-3, 9-(4-(2H-1,2,3-triazol-2-yl)benzyl)-2-(2-isopropylpyridin-3-yl)-7,9-dihydro-8H-purin-8-one] the IC50 was 0.2 to 2 µM. Cc1cn(C)nc1-c1ccc(Cn2c(=O)[nH]c3cnc(-c4cccnc4C(C)C)nc32)cc1 [Compound I-47, 9-(4-(1,4-dimethyl-1H-pyrazol-3-yl)benzyl)-2-(2-isopropylpyridin-3-yl)-7,9-dihydro-8H-purin-8-one] was tested, and the IC50 was 0.2 to 2 µM. COCCN(C)c1ncccc1-c1ncc2[nH]c(=O)n(Cc3ccc(-c4nc(C(F)(F)F)cn4C)cc3)c2n1 [Compound I-327, 2-(2-((2-methoxyethyl)(methyl)amino)pyridin-3-yl)-9-(4-(1-methyl-4-(trifluoromethyl)-1H-imidazol-2-yl)benzyl)-7,9-dihydro-8H-purin-8-one] gave an IC50 of 0.05 to 0.2 µM. CCOc1ncccc1-c1ncc2[nH]c(=O)n(Cc3ccc(-n4cccn4)cc3)c2n1 [Compound I-19, 9-(4-(1H-pyrazol-1-yl)benzyl)-2-(2-ethoxypyridin-3-yl)-7,9-dihydro-8H-purin-8-one] gave an IC50 of 0.2 to 2 µM. Work on CC(C)c1ccccc1-c1ncc2[nH]c(=O)n(Cc3ccc(-n4ccc(C#N)n4)cc3)c2n1 [Compound I-196, 1-(4-((2-(2-isopropylphenyl)-8-oxo-7,8-dihydro-9H-purin-9-yl)methyl)phenyl)-1H-pyrazole-3-carbonitrile] yielded an IC50 of less than 0.05 µM. Compound CC(C)c1ccccc1-c1ncc2c(n1)n(Cc1ccc(N(C)S(C)(=O)=O)cc1)c(=O)n2C [Compound I-459, N-(4-((2-(2-isopropylphenyl)-7-methyl-8-oxo-7,8-dihydro-9H-purin-9-yl)methyl)phenyl)-N-methylmethanesulfonamide] has an IC50 of 0.2 to 2 µM. CC(C)NC(=O)c1ccc(Cn2c(=O)[nH]c3cnc(-c4ccccc4C(C)C)nc32)cc1 [Compound I-356, N-isopropyl-4-((2-(2-isopropylphenyl)-8-oxo-7,8-dihydro-9H-purin-9-yl)methyl)benzamide] was tested, and the IC50 was less than 0.05 µM. Work on CCCN(C)C(=O)c1ccc(Cn2c(=O)[nH]c3cnc(-c4ccccc4C(C)C)nc32)cc1 [Compound I-374, 4-((2-(2-isopropylphenyl)-8-oxo-7,8-dihydro-9H-purin-9-yl)methyl)-N-methyl-N-propylbenzamide] yielded an IC50 of less than 0.05 µM. For CC(C)c1ccccc1-c1ncc2[nH]c(=O)n([C@H](C)c3ccc(-n4nccn4)cc3)c2n1 [Compound I-142, (R)-9-(1-(4-(2H-1,2,3-triazol-2-yl)phenyl)ethyl)-2-(2-isopropylphenyl)-7,9-dihydro-8H-purin-8-one], the IC50 was 0.2 to 2 µM. CC(C)c1ccccc1-c1ncc2[nH]c(=O)n(Cc3ccc(-n4ccc(N5CCN(C)CC5)n4)cc3)c2n1 [Compound I-173, 2-(2-isopropylphenyl)-9-(4-(3-(4-methylpiperazin-1-yl)-1H-pyrazol-1-yl)benzyl)-7,9-dihydro-8H-purin-8-one] showed an IC50 of less than 0.05 µM. Work on Cc1cnnn1-c1ccc(Cn2c(=O)[nH]c3cnc(-c4ccccc4C(C)C)nc32)cc1 [Compound I-185, 2-(2-isopropylphenyl)-9-(4-(5-methyl-1H-1,2,3-triazol-1-yl)benzyl)-7,9-dihydro-8H-purin-8-one] yielded an IC50 of less than 0.05 µM. Work on COC1CCCN(C(=O)c2ccc(Cn3c(=O)[nH]c4cnc(-c5ccccc5C(C)C)nc43)cc2)C1 (stereo not drawn) [Compound I-401, 2-(2-isopropylphenyl)-9-(4-(3-methoxypiperidine-1-carbonyl)benzyl)-7,9-dihydro-8H-purin-8-one] yielded an IC50 of 0.05 to 0.2 µM. With CC(C)c1ccccc1-c1ncc2c(n1)n(Cc1ccc(-c3nc(C#N)cn3C)cc1)c(=O)n2C [Compound I-541, 2-(4-((2-(2-Isopropylphenyl)-7-methyl-8-oxo-7,8-dihydro-9H-purin-9-yl)methyl)phenyl)-1-methyl-1H-imidazole-4-carbonitrile] the IC50 was less than 0.05 µM. With CCN(CC)Cc1cn(-c2ccc(Cn3c(=O)[nH]c4cnc(-c5ccccc5C(C)C)nc43)cc2)nn1 [Compound I-346, 9-(4-(4-((diethylamino)methyl)-1H-1,2,3-triazol-1-yl)benzyl)-2-(2-isopropylphenyl)-7,9-dihydro-8H-purin-8-one] the IC50 was greater than 2 µM. Work on COCC(C)Nc1ncccc1-c1ncc2[nH]c(=O)n(Cc3ccc(-c4nc(C(F)(F)F)cn4C)cc3)c2n1 (stereo not drawn) [Compound I-317, 2-(2-((1-methoxypropan-2-yl)amino)pyridin-3-yl)-9-(4-(1-methyl-4-(trifluoromethyl)-1H-imidazol-2-yl)benzyl)-7,9-dihydro-8H-purin-8-one] yielded an IC50 of 0.05 to 0.2 µM. CC(C)c1ccccc1-c1ncc2[nH]c(=O)n(CC3(F)CCN(c4cccnc4)CC3)c2n1 [Compound I-505, 9-((4-Fluoro-1-(pyridin-3-yl)piperidin-4-yl)methyl)-2-(2-isopropylphenyl)-7,9-dihydro-8H-purin-8-one] was tested, and the IC50 was 0.2 to 2 µM. CC(C)c1ccccc1-c1ncc2[nH]c(=O)n(Cc3ccc(-c4ccc(CCN(C)C)cc4)cc3)c2n1 [Compound I-249, 9-((4′-(2-(dimethylamino)ethyl)-[1,1′-biphenyl]-4-yl)methyl)-2-(2-isopropylphenyl)-7,9-dihydro-8H-purin-8-one] showed an IC50 of 0.2 to 2 µM. CC(C)c1ccccc1-c1ncc2[nH]c(=O)n(Cc3ccc(-n4ccc(C5CCN(C)C5)n4)cc3)c2n1 (stereo not drawn) [Compound I-440, 2-(2-isopropylphenyl)-9-(4-(3-(1-methylpyrrolidin-3-yl)-1H-pyrazol-1-yl)benzyl)-7,9-dihydro-8H-purin-8-one] showed an IC50 of 0.2 to 2 µM.
